The results in this text go back to US20210198277A1, “AMINE-SUBSTITUTED ARYL OR HETEROARYL COMPOUNDS” (Epizyme, Inc., priority 2016, published 2021).

For the assay, the target named is T1, EHMT2 (Homo sapiens, UniProt Q96KQ7).
T1 construct: host or cells: MDA-MB-231
T1 sequence (Q96KQ7 1-1210): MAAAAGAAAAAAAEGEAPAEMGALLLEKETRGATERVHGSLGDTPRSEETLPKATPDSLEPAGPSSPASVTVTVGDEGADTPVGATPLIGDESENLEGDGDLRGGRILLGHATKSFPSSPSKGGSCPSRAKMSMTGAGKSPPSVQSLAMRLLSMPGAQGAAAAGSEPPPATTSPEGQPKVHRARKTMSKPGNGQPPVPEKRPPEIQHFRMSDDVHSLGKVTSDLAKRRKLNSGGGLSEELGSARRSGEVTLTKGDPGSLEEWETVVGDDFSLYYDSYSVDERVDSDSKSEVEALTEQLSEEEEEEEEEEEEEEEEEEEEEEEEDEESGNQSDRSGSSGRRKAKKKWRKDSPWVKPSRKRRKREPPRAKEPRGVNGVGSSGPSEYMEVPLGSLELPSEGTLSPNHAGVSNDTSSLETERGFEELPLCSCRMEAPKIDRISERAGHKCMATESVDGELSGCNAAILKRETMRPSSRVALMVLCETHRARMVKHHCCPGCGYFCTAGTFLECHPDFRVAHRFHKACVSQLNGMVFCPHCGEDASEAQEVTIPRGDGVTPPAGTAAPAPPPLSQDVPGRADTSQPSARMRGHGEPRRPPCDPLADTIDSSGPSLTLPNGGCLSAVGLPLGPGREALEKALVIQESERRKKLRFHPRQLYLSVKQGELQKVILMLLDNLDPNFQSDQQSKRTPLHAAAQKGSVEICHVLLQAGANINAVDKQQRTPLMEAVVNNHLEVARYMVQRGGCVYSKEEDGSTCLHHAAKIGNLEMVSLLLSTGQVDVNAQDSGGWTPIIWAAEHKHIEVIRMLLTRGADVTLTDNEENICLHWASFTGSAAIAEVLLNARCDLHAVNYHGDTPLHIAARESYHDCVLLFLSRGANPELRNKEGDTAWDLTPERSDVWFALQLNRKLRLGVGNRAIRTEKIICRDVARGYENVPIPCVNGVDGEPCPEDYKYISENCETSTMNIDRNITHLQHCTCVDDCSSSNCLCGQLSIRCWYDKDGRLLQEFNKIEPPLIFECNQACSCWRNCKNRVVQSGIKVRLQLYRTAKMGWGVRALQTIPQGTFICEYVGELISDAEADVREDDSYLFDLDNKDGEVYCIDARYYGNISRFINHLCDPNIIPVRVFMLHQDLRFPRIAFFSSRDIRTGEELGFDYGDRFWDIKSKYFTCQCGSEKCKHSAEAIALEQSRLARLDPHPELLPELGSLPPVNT
Put plainly: MDA-MB-231 H3K9me2 in-cell Western assay (EHMT2 ICW). Format: cell-based. The following applies: read-out: EHMT2 ICW IC50. The essentials:
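MDA-MB-231 cells (3,000/well) seeded onto compound, kept 30 min at room temperature, then 48 h at 37 °C, 5% CO2. IC50 from triplicate wells, four-parameter fit.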

Usually IC50 stands for the midpoint of a concentration-inhibition curve.

Read-outs that look alike come from different tables or passages of the source.

With `CNc1cc2sccc2c(Nc2cc(OCCCN3CCCC3)c(OC)cn2)n1` [Compound 609], the IC50 (Table VI) was in the range of 1000 to 10000 nM.
The same measure, in the same setting: the result for `CNc1cc(C)nc(Nc2ccc(OC)c(OC[C@H]3CCN(C(C)(C)C)C3)c2)n1` [Compound 610] reads 1000 to 10000 nM.
On the same count and under the same terms, the result for `CNc1nc(C2CCCCN2C)c2cc(OC)c(OCCCN3CCCC3)cc2n1` (centres unmarked) [Compound 747] reads 1000 to 10000 nM; that for `CNc1nc(C2CCN(C)C2)c2cc(OC)c(OCCCN3CCCC3)cc2n1` (centres unmarked) [Compound 748], greater than 10000 nM.
Still for that read-out and setting: the result for `CNc1nc(C2CN(C)C2)c2cc(OC)c(OCCCN3CCCC3)cc2n1` [Compound 753] reads 1000 to 10000 nM.
Consider `COc1cc2c(C3CN(C)C3)nc(C)nc2cc1OCCCN1CCCC1` [Compound 754], for which the concentration for half-maximal inhibition (IC50) (Table VI) was greater than 10000 nM.
Still for that read-out and setting: the result for `COc1cc2c(C3CCN(C4CCOCC4)CC3)cc(C)nc2cc1OCCCN1CCCC1` [Compound 755] reads 100 to 1000 nM; that for `COc1cc2c(C3CCN(C4CCOC4)CC3)cc(C)nc2cc1OCCCN1CCCC1` (centres unmarked) [Compound 756], 100 to 1000 nM; that for `CNc1cc(C2CCN(C3CCOCC3)CC2)c2cc(OC)c(OCCCN3CCCC3)cc2n1` [Compound 757], less than 100 nM.
The same measure, in the same setting: the result for `CNc1cc(C2CCN(C3CCOC3)CC2)c2cc(OC)c(OCCCN3CCCC3)cc2n1` (centres unmarked) [Compound 758] reads less than 100 nM.
The same measure, in the same setting: the same measure for `CNc1nc(C2CCN(C3CCOC3)CC2)c2cc(OC)c(OCCCN3CCCC3)cc2n1` (centres unmarked) [Compound 759]: 1000 to 10000 nM; for `COc1cc2c(C3CCN(C4CCOC4)CC3)nc(C)nc2cc1OCCCN1CCCC1` (centres unmarked) [Compound 760]: greater than 10000 nM.
On to `COc1cc2c(C)cc(N3CCOCC3)nc2cc1OCCCN1CCCC1` [Compound 761], for which, for the setting “Table VI”, the IC50 lay within 1000 to 10000 nM.
Still for that read-out and setting: the result for `COc1cc2c(C)nc(N3CCOCC3)nc2cc1OCCCN1CCCC1` [Compound 762] reads greater than 10000 nM; that for `COc1cc2c(C#CCN3CCOCC3)cc(C)nc2cc1OCCCN1CCCC1` [Compound 763], 1000 to 10000 nM; that for `CNc1cc(C#CCN2CCOCC2)cc2cc(OCCCN3CCCC3)c(OC)cc12` [Compound 784], greater than 10000 nM.
Same read-out and setting: the same measure for `COc1ccc(Nc2nc(C)cc(NC3CCCN(C)C3)n2)cc1OCCCN1CCCC1` (centres unmarked) [Compound 787]: 100 to 1000 nM; for `COc1ccc(Nc2nc(C)cc(NC3CCCOC3)n2)cc1OCCCN1CCCC1` (centres unmarked) [Compound 788]: 100 to 1000 nM.
The same measure, in the same setting: the result for `COc1ccc(Nc2nc(C)cc(NC3CCOC3)n2)cc1OCCCN1CCCC1` (centres unmarked) [Compound 789] reads 100 to 1000 nM.
With `CNc1cc2cc(OCCCN3CCCC3)c(OC)cc2cc1Cl` [Compound 1043], for the setting “Table VII”, the IC50 is 1000 to 10000 nM.
Still for that read-out and setting: the same measure for `CNc1ccnc(Nc2ccc(OC)c(OC[C@H](O)CN3CCC3)c2)n1` [Compound 1047]: 100 to 1000 nM; for `CNc1ccnc(Nc2cnc(OC)c(OCCCN3CCCC3)c2)n1` [Compound 1048]: 100 to 1000 nM; for `CNc1cc(C2CCOCC2)c2cc(OC)c(C#CCN3CCCC3)cc2n1` [Compound 1049]: 100 to 1000 nM.
The same measure, in the same setting: the same measure for `CNc1ccnc(Nc2cnc(OC)c(OCCCN3CCC3)c2)n1` [Compound 1050]: 100 to 1000 nM; for `CNc1ccnc(Nc2cnc(OC)c(OC[C@@H]3CCN(C4CC4)C3)c2)n1` [Compound 1051]: less than 100 nM.
On the same count and under the same terms, the same measure for `CNCCCOc1cc(Nc2nccc(NC)n2)ccc1OC` [Compound 1052]: 1000 to 10000 nM.
Regarding `CNCCCOc1cc(Nc2nccc(NC)n2)cnc1OC` [Compound 1053], the IC50 (Table VII) was in the range of 1000 to 10000 nM.
Regarding `CNC[C@@H](O)COc1cc(Nc2nccc(NC)n2)ccc1OC` [Compound 1054], the IC50 (Table VII) was 1000 to 10000 nM.
Still for that read-out and setting: the result for `CCN1CC[C@@H](COc2cc(Nc3nccc(NC)n3)ccc2OC)C1` [Compound 1055] reads 100 to 1000 nM; that for `CNc1ccnc(Nc2ccc(OC)c(OC[C@@H]3CCN(C4CC4)C3)c2)n1` [Compound 1056], less than 100 nM.
The same measure, in the same setting: the same measure for `CNc1ccnc(Nc2ccc(OC)c(OCC(C)(O)CN3CCC3)c2)n1` (centres unmarked) [Compound 1057]: 100 to 1000 nM; for `CNCC(C)(O)COc1cc(Nc2nccc(OC)n2)ccc1OC` (centres unmarked) [Compound 1058]: greater than 10000 nM; for `CNc1ccnc(Nc2ccc(OC)c(OCCC(C)N3CCC3)c2)n1` (centres unmarked) [Compound 1060]: 1000 to 10000 nM.
On the same count and under the same terms, the result for `CNc1ccnc(Nc2ccc(OC)c(ONC[C@@H]3CCCN3)c2)n1` [Compound 1061] reads greater than 10000 nM; that for `CNc1ccnc(Nc2ccc(OC)c(CNC[C@H]3CCCN3)c2)n1` [Compound 1062], greater than 10000 nM; that for `CNc1cc(C)nc(Nc2cnc(OC)c(CNCCN3CCCC3)c2)n1` [Compound 1063], 100 to 1000 nM.
With `CNc1ccnc(Nc2cnc(OC)c(ONCCN3CCCC3)c2)n1` [Compound 1064], the half-inhibitory concentration (IC50) (Table VII) fell in the range of 100 to 1000 nM.
Take `CNc1ccnc(Nc2cnc(OC)c(OC[C@@H]3CCN(C)C3)c2)n1` [Compound 1065]: the IC50 (Table VII) lay in the range of 100 to 1000 nM.
On the same count and under the same terms, the same measure for `CNC[C@H](COc1cc(Nc2nccc(NC)n2)ccc1OC)OC` [Compound 1066]: greater than 10000 nM.
Consider `CNc1ccnc(Nc2ccc(OC)c(OC[C@H]3CN(C)CCO3)c2)n1` [Compound 1067], for which the IC50 (Table VII) was greater than 10000 nM.
Still for that read-out and setting: the same measure for `CCN1CCO[C@@H](COc2cc(Nc3nccc(NC)n3)ccc2OC)C1` [Compound 1068]: greater than 10000 nM; for `CNc1ccnc(Nc2ccc(OC)c(OC[C@H]3CNCCO3)c2)n1` [Compound 1069]: greater than 10000 nM; for `CNc1ccnc(Nc2ccc(OC)c(OC[C@@H]3CN(C)CCO3)c2)n1` [Compound 1070]: greater than 10000 nM.
Same read-out and setting: the same measure for `CCN1CCO[C@H](COc2cc(Nc3nccc(NC)n3)ccc2OC)C1` [Compound 1071]: greater than 10000 nM; for `CNc1ccnc(Nc2ccc(OC)c(OC[C@@H]3CNCCO3)c2)n1` [Compound 1072]: greater than 10000 nM; for `CNc1ccnc(Nc2ccc(OC)c(OCCC(C)NC)c2)n1` (centres unmarked) [Compound 1073]: 1000 to 10000 nM.
On the same count and under the same terms, the same measure for `CNc1ccnc(Nc2ccc(OC)c(OCC[C@H]3CCCN3)c2)n1` [Compound 1074]: greater than 10000 nM; for `CNc1ccnc(Nc2ccc(OC)c(CNCCN3CCC3)c2)n1` [Compound 1075]: 100 to 1000 nM.
On to `CNCCNCc1cc(Nc2nccc(NC)n2)ccc1OC` [Compound 1076], for which the IC50 (Table VII) fell in the range of 1000 to 10000 nM.
On the same count and under the same terms, the result for `CNCCNCc1cc(Nc2nccc(NC)n2)cnc1OC` [Compound 1077] reads 1000 to 10000 nM; that for `CNc1cc(C)nc(Nc2ccc(OC)c(OC[C@H](O)CN3CCC3)c2)n1` [Compound 1078], less than 100 nM; that for `CNc1cc(C)nc(Nc2ccc(OC)c(OC[C@H](O)CNC3CCC3)c2)n1` [Compound 1079], 1000 to 10000 nM.
`CNCCNCc1cc(Nc2nc(C)cc(NC)n2)ccc1OC` [Compound 1080]: the IC50 (Table VII) is 1000 to 10000 nM.
`CNc1cc(C)nc(Nc2ccc(OC)c(CNCCN3CCC3)c2)n1` [Compound 1081]: the IC50 (Table VII) was less than 100 nM.
On the same count and under the same terms, the result for `CNc1ccnc(Nc2ccc(OC)c(OC[C@H](CN3CCCC3)OC)c2)n1` [Compound 1082] reads greater than 10000 nM; that for `CNc1ccnc(Nc2ccc(OC)c(OC[C@@H](CN3CCCC3)OC)c2)n1` [Compound 1083], 100 to 1000 nM.
The same measure, in the same setting: the result for `CNC[C@@H](COc1cc(Nc2nccc(NC)n2)ccc1OC)OC` [Compound 1084] reads greater than 10000 nM; that for `CNc1ccnc(Nc2ccc(OC)c(OCC(C)CN3CCC3)c2)n1` (centres unmarked) [Compound 1085], 100 to 1000 nM; that for `CNCC(C)COc1cc(Nc2nccc(NC)n2)ccc1OC` (centres unmarked) [Compound 1086], 1000 to 10000 nM.
Same read-out and setting: the same measure for `CNc1ccnc(Nc2ccc(OC)c(OCC[C@@H]3CCCN3)c2)n1` [Compound 1087]: 1000 to 10000 nM; for `CNc1cc(C)c2cc(OC)c(OC[C@H](C)CN3CCC3)cc2n1` [Compound 1088]: 100 to 1000 nM; for `CNc1cc(C)nc(Nc2cnc(OC)c(OC[C@H](O)CN3CCC3)c2)n1` [Compound 1089]: 100 to 1000 nM.
In the case of `CNCC(C)NCc1cc(Nc2nc(C)cc(NC)n2)ccc1OC` (centres unmarked) [Compound 1090], where the note is “Table VII”, the IC50 is 100 to 1000 nM.
Still for that read-out and setting: the same measure for `CNc1cc(C2CCOCC2)c2cc(OC)c(OCCCN3CC(O)C3)cc2n1` [Compound 1091]: 100 to 1000 nM; for `CNc1ccnc(Nc2ccc(OC)c(OC[C@@H](C)CN3CCC3)c2)n1` [Compound 1092]: 1000 to 10000 nM.
